# Source: ChEMBL document CHEMBL4304785, “Recent advances of analogues of curcumin for treatment of cancer” (Eur J Med Chem, 2019)
# pIC50: −log10 of the molar value.
# Tests used:
# [1] = tested on: SK-OV-3; assay: Induction of apoptosis in human SKOV3 cells at 20 umol/L after 48 hrs by annexin-V-FITC/propidium iodide staining-based flow cytometric method relative to control; type: functional
# [2] = tested on: MDA-MB-231; assay: Increase in MMP3 level in human MDA-MB-231 cells after 24 hrs by ELISA; type: functional, cell-based; details: MDA-MB-231, 24 h
# [3] = tested on: SK-OV-3; assay: Induction of apoptosis in human SKOV3 cells at 40 umol/L after 48 hrs by annexin-V-FITC/propidium iodide staining-based flow cytometric method relative to control; type: functional
# [4] = tested on: HT-1080; assay: Decrease in UPA expression in human HT1080 cells; type: functional, cell-based
# [5] = tested on: SK-OV-3; assay: Induction of apoptosis in human SKOV3 cells at 80 umol/L after 48 hrs by annexin-V-FITC/propidium iodide staining-based flow cytometric method relative to control; type: functional
# [6] = tested on: MCF7R; assay: Cytotoxicity against human MCF7/R cells after 72 hrs in presence of curcumin by MTS assay relative to control; type: functional
# [7] = tested on: MCF7R; assay: Cytotoxicity against human MCF7/R cells at 10 uM after 72 hrs by MTS assay relative to control; type: functional
# [8] = Induction of apoptosis in human SNUC5 cells relative to control; type: functional, cell-based
# [9] = tested on: HT-1080; assay: Antioxidant activity in human HT1080 cells at 100 umol/L by measuring TBARS level by spectrophotometric method relative to control; type: functional
# [10] = tested on: DU-145; assay: Cell cycle arrest in human DU145 cells by propidium iodide staining-based flow cytometric method; type: functional
# [11] = tested on: MCF7; assay: Cell cycle arrest in human MCF7 cells by propidium iodide staining-based flow cytometric method; type: functional
# [12] = tested on: 3LL cell line; assay: Induction of apoptosis in mouse 3LL cells relative to control; type: functional, cell-based
# [13] = tested on: HepG2; assay: Induction of apoptosis in human HepG2 cells relative to control; type: functional, cell-based
# [14] = tested on: A549; assay: Cell cycle arrest in human A549 cells by propidium iodide staining-based flow cytometric method; type: functional
# [15] = tested on: HL-60; assay: Induction of apoptosis in human HL60 cells relative to control; type: functional, cell-based
# [16] = tested on: KB; assay: Cell cycle arrest in human KB cells by propidium iodide staining-based flow cytometric method; type: functional
# [17] = tested on: U-937; assay: Induction of apoptosis in human U937 cells relative to control; type: functional, cell-based
# [18] = tested on: NCI-H460; assay: Antiproliferative activity against human H460 cells by MTT assay; type: functional, cell-based
# [19] = tested on: U-251; assay: Antiproliferative activity against human U251 cells by MTT assay; type: functional, cell-based
# [20] = tested on: SGC-7901; assay: Antiproliferative activity against human SGC7901 cells by MTT assay; type: functional, cell-based
# [21] = tested on: L02; assay: Antiproliferative activity against human HL7702 cells by MTT assay; type: functional, cell-based
# [22] = tested on: HepG2; assay: Cytotoxicity against human HepG2 cells by MTT/SRB assay; type: functional, cell-based
# [23] = tested on: CHO-K1; assay: Cytotoxicity against CHOK1 cells by MTT/SRB assay; type: functional, cell-based; details: Cricetulus griseus
# [24] = tested on: Caco-2; assay: Cytotoxicity against human Caco2 cells by MTT/SRB assay; type: functional, cell-based
# [25] = tested on: HT-29; assay: Cytotoxicity against human HT-29 cells by MTT/SRB assay; type: functional, cell-based
# [26] = Cytotoxicity against human SW116 cells after 4 hrs by MTT assay; type: functional, cell-based; details: SW116, 4 h
# [27] = tested on: SW480; assay: Cytotoxicity against human SW480 cells after 4 hrs by MTT assay; type: functional, cell-based; details: SW480, 4 h
# [28] = tested on: WiDr; assay: Cytotoxicity against human WiDr cells after 4 hrs by MTT assay; type: functional, cell-based
# [29] = tested on: HT-29; assay: Cytotoxicity against human HT-29 cells after 4 hrs by MTT assay; type: functional, cell-based; details: HT-29, 4 h
# [30] = tested on: KM12; assay: Cytotoxicity against human KM12 cells after 4 hrs by MTT assay; type: functional, cell-based; details: KM12, 4 h
# [31] = tested on: Colon 26; assay: Cytotoxicity against mouse Colon 26 cells after 4 hrs by MTT assay; type: functional, cell-based; details: Colon 26, 4 h, read-out: IC50
# [32] = tested on: Caco-2; assay: Cytotoxicity against human Caco2 cells by MTT assay; type: functional, cell-based
# [33] = tested on: A-431; assay: Cytotoxicity against human A431 cells after 72 hrs by MTT assay; type: functional, cell-based; details: A-431, 72 h
# [34] = tested on: A-375; assay: Cytotoxicity against human A375 cells after 72 hrs by MTT assay; type: functional, cell-based; details: A-375, 72 h
# [35] = Cytotoxicity against human BCC cells after 72 hrs by MTT assay; type: functional, cell-based
# [36] = Cytotoxicity against […] cells after 72 hrs by MTT assay; type: functional, cell-based; details: B16, 72 h
# [37] = tested on: SCC-25; assay: Cytotoxicity against human SCC25 cells after 72 hrs by MTT assay; type: functional, cell-based; details: SCC-25, 72 h
# [38] = target: 72 kDa type IV collagenase (Homo sapiens) (UniProt P08253); assay: Inhibition of MMP2 (unknown origin)
# Chain of 72 kDa type IV collagenase (Homo sapiens) (P08253 110-660 limits assumed): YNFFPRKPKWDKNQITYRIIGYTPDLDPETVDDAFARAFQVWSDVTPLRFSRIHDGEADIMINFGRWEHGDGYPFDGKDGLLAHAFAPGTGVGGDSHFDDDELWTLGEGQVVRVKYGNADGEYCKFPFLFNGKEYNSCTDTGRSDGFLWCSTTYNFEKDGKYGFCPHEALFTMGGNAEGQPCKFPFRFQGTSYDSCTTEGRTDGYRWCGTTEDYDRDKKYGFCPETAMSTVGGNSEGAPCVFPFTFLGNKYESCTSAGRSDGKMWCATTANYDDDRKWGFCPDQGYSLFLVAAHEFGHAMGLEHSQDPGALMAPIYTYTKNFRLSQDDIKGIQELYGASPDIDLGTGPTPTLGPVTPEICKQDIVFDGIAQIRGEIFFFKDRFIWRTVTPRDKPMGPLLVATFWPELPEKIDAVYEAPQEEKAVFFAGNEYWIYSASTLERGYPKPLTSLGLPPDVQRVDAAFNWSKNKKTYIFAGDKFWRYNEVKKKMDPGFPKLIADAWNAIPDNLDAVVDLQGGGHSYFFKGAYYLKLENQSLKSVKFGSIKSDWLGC
structure (smiles),measurement,setting,value
COc1cc(/C=C/C(=O)CC(=O)/C=C/c2ccc(O)cc2)ccc1O,Activity,[1],35.1%
same,pIC50,[2],5.05
same,Activity,[3],51.5%
same,pIC50,[4],5.12
same,Activity,[5],70.7%
COc1cc(/C=C/c2cc(/C=C/c3ccc(O)c(OC)c3)on2)ccc1O,inhibition (INH),[6],57.6%
same,inhibition at 10 µM,[7],57.8%
C/C=C/c1ccc(O)c(OC)c1,pIC50,[8],3.89
same,Activity,[9],70%
same,pIC50,[10],4.48
same,pIC50,[11],4.39
same,pIC50,[12],4.05
same,pIC50,[13],3.93
same,pIC50,[14],4.47
same,pIC50,[15],4.63
same,pIC50,[16],4.41
same,pIC50,[17],4.40
O=C1/C(=C/c2ccccc2F)CNC/C1=C\c1ccccc1F,pIC50,[18],5.22
same,pIC50,[19],5.35
same,pIC50,[20],5.19
same,pIC50,[21],5.24
O=C(/C=C(O)/C=C/c1c[nH]c2ccccc12)/C=C/c1c[nH]c2ccccc12,pIC50,[22],4.92 to 5.48
same,pIC50,[23],4.92 to 5.48
same,pIC50,[24],4.92 to 5.48
same,pIC50,[25],4.92 to 5.48
COc1cc(/C=C/C(=O)C(Cc2ccc(O)c(OC)c2)C(=O)/C=C/c2ccc(O)c(OC)c2)ccc1O,pIC50,[26],5.15
same,pIC50,[27],5.32
same,pIC50,[28],5.14
same,pIC50,[29],5.27
same,pIC50,[30],5.41
same,pIC50,[31],5.05
CCOC(=O)CCC(=O)Oc1ccc(/C=C/C(=O)/C=C(O)/C=C/c2ccc(OC(=O)CCC(=O)OCC)c(OC)c2)cc1OC,pIC50,[32],5.74
COc1cc(CCC(=O)CCCCc2ccccc2)ccc1O,pIC50,[33],4.88
same,pIC50,[34],4.62
same,pIC50,[35],4.95
same,pIC50,[36],4.40
same,pIC50,[37],4.73
CCCCC[C@H](O)CC(=O)CCc1ccc(O)c(OC)c1,INH,[38],> 10 µmol/L
